# From US20100173837A1, “DOSING FORMS AND REGIMENS COMPRISING 3-[(R)-2-(N,N-DIMETHYLAMINO)ETHYLTHIO-SAR]-4-(GAMMAHYDROXYMETHYLLEUCINE)CYCLOSPORINE” (priority 2009, published 2010)
# pEC50, pIC50: −log10 of the molar value. Values joined by “and” are separate entries in the source; they are usually repeats but may differ in a detail not shown here. Equal entries are not always repeated. Where two headings read alike, the source gives them in different places.
# Columns and labels:
# [1] = system: Con1 (genotype 1b) bi-cistronic subgenomic replicon in Huh-7; assay: anti-HCV activity in Huh-7 subgenomic replicon, luciferase; format: cell-based; details: for EC50 / EC90 / pIC50 / IC90: Hepatitis C virus; for EC50: corresponds to IC50 in μM, read-out: mean effective concentration EC50; for EC90: read-out: mean effective concentration EC90
# Method: The anti-HCV activity of SCY-635 was assessed in a human hepatoma cell line (Huh-7) that contains a Con1 (genotype 1b) bi-cistronic subgenomic replicon. The replicon contains a stable luciferase reporter gene and three cell culture adaptive mutations. The subgenomic replicon contains the 5′ terminus (which includes the HCV Internal Ribosomal Entry Site and the first few amino acids of the HCV core protein) which drives the production of the neomycin phosphotransferase protein. The EMCV IRES element directs the translation of the second cistronic unit that encodes the non-structural proteins NS3, NS4A, NS4B, NS5A, and NS5B. For comparative purposes HCV RNA replication was assessed by quantifying HCV replicon-derived luciferase activity and by quantifying HCV-specific RNA using reverse transcriptase-real time PCR. Duplicate plates were incubated with various concentrations of SCY-635 and were processed either for luciferase activity or for total RNA extraction at 24, 48, 72 and 120 hours after drug treatment. SCY-635 was tested at twelve half-log dilutions ranging from 0.00016 to 50 μM. Stock solutions of each test article were diluted into culture media and added to the plate. After a 72 hour incubation, cells were processed to determine luciferase luminescence as a measurement of antiviral activity. Three replicates were performed and mean values were calculated.
# [2] = cell cytotoxicity on replicon cells (LDH release, ribosomal RNA); details: human, replicon cells (Huh-7 background)
# Method: (§1) Cell cytotoxicity was assessed by measuring the release of lactate dehydrogenase from cell membranes and by measuring total ribosomal RNA. […] SCY-635 was assessed for cytotoxicity in primary human hepatocytes. […] SCY-635 was also assessed for cytotoxicity in primary human renal tubular epithelial cells.
# replicon cells = assay: as above; details: replicon cells
# Method: as §1
# in vitro = details: human
# Method: as §1
# Huh-7 cell line = assay: in vitro; details: Huh-7 cell line
# Method: as §1
# [3] = system: primary human hepatocytes
# Method: as §1
# [4] = system: primary human renal tubular epithelial cells
# Method: as §1
# [5] = system: full length genotype 1b derived replicon in human hepatoma cell line; assay: anti-HCV activity in full length genotype 1b replicon, RT-PCR; format: cell-based; details: 72-hour incubation
# Method: (§2) The anti-HCV activity of SCY-635 was also assessed in a human hepatoma cell line that contains a full length genotype 1b derived replicon. Cells were processed following a 72-hour incubation at 37° C. Intracellular RNA from each well was extracted and the level of HCV-specific RNA was determined by reverse transcriptase-real time PCR. Cytotoxic effects were measured by assessing ribosomal RNA as an indication of total cell numbers.
# [6] = system: human hepatoma cell line containing full length replicon; assay: cytotoxicity in full length replicon cells (ribosomal RNA); format: cell-based; details: concentrations up to 10 μM, 72-hour incubation
# Method: as §2
# hepatitis C (subtype 1) = assay: plasma HCV RNA viral load in HCV-infected subjects, 15-day t.i.d. study; format: in vivo, human; details: 15 days, per os
# Method: All human subjects were male (n=20); 75% were African American. Average age was 53.0 years. […] Viral load data from the study described in Example 4 above was measured by the quantitative Roche COBAS […] assay. The test measures HCV RNA in International Units (IU) per mL using real-time Polymerase Chain Reaction (RT-PCR) technology. […] All clinical viral load samples were assayed at LabCorp.
# [7] = human, in vivo
# Method: SCY-635 (given as oral capsules as described in Example 3 above) was examined in a randomized, double-blind, placebo-controlled, multi-dose study to adult volunteers who are chronically infected with hepatitis C (subtype 1). Three cohorts received 100, 200 or 300 milligrams of SCY-635 three times per day (100 mg, 200 mg or 300 mg t.i.d., respectively) per os for 15 consecutive days. The 100 mg t.i.d. cohort was comprised of 7 human subjects (1 placebo and 6 active); the 200 mg t.i.d. cohort was comprised of 6 human subjects (1 placebo and 5 active); and the 300 mg t.i.d. cohort was comprised of 7 human subjects (1 placebo and 6 active).
# All human subjects were male (n=20); 75% were African American. Average age was 53.0 years. Average HCV RNA plasma viremia on enrollment was 5,600,000 IU/ml, as measured by the quantitative Roche COBAS taqMan assay. 55% of human subjects were treatment naïve.
# [8] = single dose pharmacokinetic study in healthy volunteers; details: human, in vivo, 400 mg single dose (capsules), read-out: Mean SCY-635 Plasma Concentration
# Method: Blood samples were collected from human subjects during the 72-hour interval immediately following administration of a single dose of SCY-635. […] Concentrations of SCY-635 in human blood and plasma samples from the study described in this Example were determined using validated high pressure liquid chromatography/tandem mass spectrometric (HPLC-MS/MS) methods with assay ranges of 50 to 5000 ng/mL for whole blood and 15 to 2000 ng/mL for plasma. The table below summarizes the results obtained (“BLOQ” means below the limit of quantitation).
# [9] = human, in vivo; remark: listed apart in the source
# Description: SCY-635 (given as oral capsules [400 milligram dose] or tablets [500 and 600 milligram doses] as described in Example 3 above) was examined in a randomized, double-blind, placebo-controlled, pharmacokinetic study in normal healthy adult volunteers. Three cohorts received a single dose of either 400, 500 or 600 milligrams of SCY-635. Each cohort was comprised of 8 human subjects (2 placebo and 6 active). Blood samples were collected from human subjects during the 72-hour interval immediately following administration of a single dose of SCY-635.
# [10] = 500 mg b.i.d. 14-day pharmacokinetic study in healthy volunteers; details: human, in vivo, 264 h post first dose, read-out: Mean SCY-635 Plasma Concentration
# Description: SCY-635 (given as oral tablets as described in Example 3 above) was examined in a double-blind, placebo-controlled, pharmacokinetic study in normal healthy adult volunteers. […] On Day 14, only the morning dose of drug was given and blood samples were collected during the 72-hour interval immediately following administration of the final dose. In addition, blood samples for the measurement of trough drug concentrations were collected from the subjects immediately prior to the administration of SCY-635 on the mornings of Days 2-6 and 8-13. […] Concentrations of SCY-635 in human blood and plasma samples from the two subjects were determined using validated high pressure liquid chromatography/tandem mass spectrometric (HPLC-MS/MS) methods with assay ranges of 50 to 5000 ng/mL for whole blood and 15 to 2000 ng/mL for plasma.
# [11] = human, in vivo; remark: listed apart in the source
# Description: SCY-635 (given as oral tablets as described in Example 3 above) was examined in a double-blind, placebo-controlled, pharmacokinetic study in normal healthy adult volunteers. […] On Day 14, only the morning dose of drug was given and blood samples were collected during the 72-hour interval immediately following administration of the final dose. In addition, blood samples for the measurement of trough drug concentrations were collected from the subjects immediately prior to the administration of SCY-635 on the mornings of Days 2-6 and 8-13.
# [12] = system: HCV-specific RNA replication; details: subgenomic and full length replicon systems; cited from earlier work
# cyclophilin A [13] = target: T1, cyclophilin A (Homo sapiens, UniProt P62937); details: in vitro studies; cited from earlier work
# cyclophilin A [14] = target: T1, cyclophilin A; details: in vitro studies; cited from earlier work; remark: listed apart in the source
# [15] = Huh-7, by inspection of the curves
# [16] = linear regression, 72 hour incubation, luciferase
# T1 sequence (P62937 whole entry): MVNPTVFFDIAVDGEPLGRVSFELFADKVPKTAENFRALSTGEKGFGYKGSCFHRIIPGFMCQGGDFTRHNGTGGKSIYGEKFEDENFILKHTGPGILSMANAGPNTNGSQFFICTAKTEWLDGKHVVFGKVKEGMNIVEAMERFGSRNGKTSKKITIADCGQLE
compound,measurement,setting,value
"C/C=C/C[C@@H](C)[C@@H](O)[C@H]1C(=O)N[C@@H](CC)C(=O)N(C)[C@H](SCCN(C)C)C(=O)N(C)[C@@H](CC(C)(C)O)C(=O)N[C@@H](C(C)C)C(=O)N(C)[C@@H](CC(C)C)C(=O)N[C@@H](C)C(=O)N[C@H](C)C(=O)N(C)[C@@H](CC(C)C)C(=O)N(C)[C@@H](CC(C)C)C(=O)N(C)[C@@H](C(C)C)C(=O)N1C [SCY-635, 3-[(R)-2-(N,N-dimethylamino)ethylthio-Sar]-4-(gammahydroxymethylleucine)cyclosporine]",EC50,[1]; [15],0.107 µg/mL
same,EC50,"[1]; Huh-7, linear regression",0.121 µg/mL
same,EC90,"[1]; Huh-7, linear regression, corresponds to IC90 in μM",0.501 µg/mL
same,pIC50,"[1]; Huh-7, by inspection of the curves, 72 hour incubation, luciferase, read-out: mean IC50 (HCV replication)",7.09
same,IC90,"[1]; Huh-7, by inspection of the curves, read-out: mean IC90 (HCV replication)",333 nM
same,EC90,[1]; [15],0.441 µg/mL
same,pIC50,"[1]; Huh-7, linear regression, 72 hour incubation, luciferase, read-out: mean calculated IC50 (HCV replication)",7.04
same,IC90,"[1]; Huh-7, linear regression, 72 hour incubation, luciferase, read-out: mean calculated IC90 (HCV replication)",397 nM
same,mean IC75 (HCV replication),[1]; by inspection of the curves,165 nM
same,mean IC95 (HCV replication),[1]; by inspection of the curves,410 nM
same,mean IC98 (HCV replication),[1]; by inspection of the curves,0.500 µM
same,mean effective concentration EC75,[1]; by inspection of the curves,0.217 µg/mL
same,mean effective concentration EC95,[1]; by inspection of the curves,0.542 µg/mL
same,mean effective concentration EC98,[1]; by inspection of the curves,661 ng/mL
same,mean effective concentration EC99,[1]; by inspection of the curves,2088 ng/mL
same,sixth IC value of the list (not named; matches EC99),[1]; by inspection of the curves,1.580 µM
same,mean calculated IC75 (HCV replication),[1]; [16],200 nM
same,mean calculated IC95 (HCV replication),[1]; [16],455 nM
same,mean effective concentration EC75,"[1]; linear regression, corresponds to IC75 in μM",0.264 µg/mL
same,mean effective concentration EC95,"[1]; linear regression, corresponds to IC95 in μM",0.601 µg/mL
same,CC50 at 72 h,[2],14200 nM
same,selectivity index (CC50/IC50),replicon cells,129.0
same,cell cytotoxicity,"replicon cells; 72-hour incubation, concentrations up to and including 5 μM",No significant cell cytotoxicity
same,CC50 at 72 h,in vitro,13700 nM
same,selectivity index (CC50/IC50),Huh-7 cell line,124.5
same,50% inhibitory concentration for cell viability,"[3]; human, 48 h",33 µM
same,selectivity index,[3]; primary human hepatocytes,approximately 300
same,50% inhibitory concentration for cell viability,[4],60.6 µM
same,pEC50,"[5]; 3 independent experiments, single values, read-out: EC50 (HCV-specific RNA)",6.80 and 6.68
same,EC90,"[5]; 3 independent experiments, single values, read-out: EC90 (HCV-specific RNA)",710 nM and 790 nM
same,pEC50,"[5]; Hepatitis C virus, 72 h, 3 independent experiments, single values, read-out: EC50 (HCV-specific RNA)",6.89
same,EC90,"[5]; Hepatitis C virus, 72 h, 3 independent experiments, single values, read-out: EC90 (HCV-specific RNA)",570 nM
same,pEC50,"[5]; Hepatitis C virus, 72 h, mean of 3 experiments, read-out: mean EC50 (HCV-specific RNA)",6.77
same,EC90,"[5]; Hepatitis C virus, 72 h, mean of 3 experiments, read-out: mean EC90 (HCV-specific RNA)",690 nM
same,cell cytotoxicity,[6],absence of significant cell cytotoxicity
same,mean nadir value of plasma HCV RNA below baseline,hepatitis C (subtype 1); 100 mg t.i.d.,less than 0.5 log10
same,median nadir value of plasma HCV RNA below baseline,hepatitis C (subtype 1); 100 mg t.i.d.,less than 0.5 log10
same,mean nadir value of plasma HCV RNA below baseline,hepatitis C (subtype 1); 200 mg t.i.d.,less than 0.5 log10
same,median nadir value of plasma HCV RNA below baseline,hepatitis C (subtype 1); 200 mg t.i.d.,less than 0.5 log10
same,group mean nadir value of plasma HCV RNA below baseline,hepatitis C (subtype 1); 300 mg t.i.d.,2.33 log10
same,group median nadir value of plasma HCV RNA below baseline,hepatitis C (subtype 1); 300 mg t.i.d.,1.90 log10
same,dose limiting toxicity,[7],no evidence of a dose limiting toxicity
same,concentration at 8 h,[8],107 ng/mL
same,dose limiting toxicity,[9],no evidence of a dose limiting toxicity
same,concentration at 264 h,[10],411 ng/mL
same,dose limiting toxicity,[11],no evidence of a dose limiting toxicity
same,inhibition of HCV-specific RNA replication,[12],potent and selective inhibition
same,binding to cyclophilin A,cyclophilin A [13],capable of binding to cyclophilin A
same,inhibition of peptidyl prolyl isomerase activity of cyclophilin A,cyclophilin A [14],inhibiting its intrinsic peptidyl prolyl isomerase activity
